“Also recorded” adds a separate entry of the source.
What was measured:
[1] = tested on: SuDHL4; experiment: SuDHL4 model of B-cell follicular lymphoma; type: in vivo
[2] = tested on: U251; experiment: Tumor cell viability (TABLE 1); type: cell-based; conditions: Homo sapiens, U-251, read-out: EC50 (50% reduction in cell viability); U251 (CNS); serum-free conditions, 48 hour treatment; mean ± SEM
[3] = tested on: PC3; experiment: PC3 derived murine model of prostate cancer; type: in vivo
[4] = tested on: 786-0; experiment: Tumor cell viability (TABLE 1); type: cell-based; conditions: Homo sapiens, read-out: EC50 (50% reduction in cell viability); 786-0 (Renal); serum-free conditions, 48 hour treatment; mean ± SEM
[5] = tested on: U87MG; experiment: Tumor cell viability (TABLE 1); type: cell-based; conditions: Homo sapiens, U-87 MG, read-out: EC50 (50% reduction in cell viability); U87MG (Glioma); serum-free conditions, 48 hour treatment; mean ± SEM
[6] = tested on: ACHN; experiment: Tumor cell viability (TABLE 1); type: cell-based; conditions: Homo sapiens, read-out: EC50 (50% reduction in cell viability); ACHN (Renal); serum-free conditions, 48 hour treatment
[7] = tested on: MDA-MB-435; experiment: Tumor cell viability (TABLE 1); type: cell-based; conditions: Homo sapiens, MDA-MB-435, 48 h, read-out: EC50 (50% reduction in cell viability)
[8] = tested on: SF-295; experiment: Tumor cell viability (TABLE 1); type: cell-based; conditions: Homo sapiens, read-out: EC50 (50% reduction in cell viability); SF-295 (CNS); serum-free conditions, 48 hour treatment; mean ± SEM
[9] = tested on: KM12; experiment: Tumor cell viability (TABLE 1); type: cell-based; conditions: Homo sapiens, read-out: EC50 (50% reduction in cell viability); KM12 (Colorectal); serum-free conditions, 48 hour treatment; mean ± SEM
[10] = tested on: SW-620; experiment: Tumor cell viability (TABLE 1); type: cell-based; conditions: Homo sapiens, read-out: EC50 (50% reduction in cell viability); SW-620 (Colorectal); serum-free conditions, 48 hour treatment; mean ± SEM
[11] = tested on: CCRF-CEM; experiment: CCRF-CEM systemic model of acute lymphoblastoid leukemia; type: in vivo, mouse
Excerpt: CCRF-CEM is a p53-mutant acute lympoblastoid leukemia line of T-cell origin used as an animal (mouse) model of systemic leukemia involving intravenous inoculation of tumor cells. If left untreated, the mice succumb to disease within about 34 days post inoculation, at which time extensive tumor infiltration of spleen, liver, and bone marrow has occured.

[12] = tested on: DLD-1; experiment: Tumor cell viability (TABLE 1); type: cell-based; conditions: Homo sapiens, read-out: EC50 (50% reduction in cell viability); DLD-1 (Colorectal); serum-free conditions, 48 hour treatment; mean ± SEM
[13] = tested on: NCI-H23; experiment: Tumor cell viability (TABLE 1); type: cell-based; conditions: Homo sapiens, read-out: EC50 (50% reduction in cell viability); NCI-H23 (Non-Small Cell Lung); serum-free conditions, 48 hour treatment; mean ± SEM
[14] = tested on: HCT-116; experiment: Tumor cell viability (TABLE 1); type: cell-based; conditions: Homo sapiens, read-out: EC50 (50% reduction in cell viability); HCT-116 (Colorectal); serum-free conditions, 48 hour treatment; mean ± SEM
[15] = Combination therapy studies with cytotoxic agents; conditions: with etoposide, vincristine, modified CHOP, doxorubicin, rapamycin and Rituxin®
[16] = tested on: HOP-62; experiment: Tumor cell viability (TABLE 1); type: cell-based; conditions: Homo sapiens, read-out: EC50 (50% reduction in cell viability); HOP-62 (Non-Small Cell Lung); serum-free conditions, 48 hour treatment; mean ± SEM
[17] = tested on: LOX IMVI; experiment: Tumor cell viability (TABLE 1); type: cell-based; conditions: Homo sapiens, read-out: EC50 (50% reduction in cell viability); LOX IMVI (Melanoma); serum-free conditions, 48 hour treatment; mean ± SEM
[18] = tested on: IGROV-1; experiment: Tumor cell viability (TABLE 1); type: cell-based; conditions: Homo sapiens, read-out: EC50 (50% reduction in cell viability); IGROV-1 (Ovarian); serum-free conditions, 48 hour treatment; mean ± SEM
[19] = tested on: COLO 205; experiment: Tumor cell viability (TABLE 1); type: cell-based; conditions: Homo sapiens, read-out: EC50 (50% reduction in cell viability); COLO 205 (Colorectal); serum-free conditions, 48 hour treatment; mean ± SEM
[20] = tested on: SF-268; experiment: Tumor cell viability (TABLE 1); type: cell-based; conditions: Homo sapiens, read-out: EC50 (50% reduction in cell viability); SF-268 (CNS); serum-free conditions, 48 hour treatment; mean ± SEM
[21] = tested on: DU-145; experiment: Tumor cell viability (TABLE 1); type: cell-based; conditions: Homo sapiens, read-out: EC50 (50% reduction in cell viability); DU-145 (Prostate); serum-free conditions, 48 hour treatment; mean ± SEM
[22] = tested on: T47D; experiment: Tumor cell viability (TABLE 1); type: cell-based; conditions: Homo sapiens, read-out: EC50 (50% reduction in cell viability); T47D (Breast); serum-free conditions, 48 hour treatment
[23] = tested on: H146; experiment: H146 small cell lung cancer murine model; type: in vivo
Excerpt: (H146 and SCLC xenograft) from human-derived small cell lung cancer isolated from smokers and nonsmokers, defective for Rb/p53 gene function, and expresseive of moderately high levels of Bcl-2.

[24] = tested on: MiaPaCa; experiment: Tumor cell viability (TABLE 1); type: cell-based; conditions: Homo sapiens, MIA PaCa-2, read-out: EC50 (50% reduction in cell viability); MiaPaCa (Pancreas); serum-free conditions, 48 hour treatment; mean ± SEM
[25] = tested on: OVCAR-3; experiment: Tumor cell viability (TABLE 1); type: cell-based; conditions: Homo sapiens, read-out: EC50 (50% reduction in cell viability); OVCAR-3 (Ovarian); serum-free conditions, 48 hour treatment; mean ± SEM

With `CN(C)CC[C@H](CSc1ccccc1)Nc1ccc(S(=O)(=O)NC(=O)c2ccc(N3CCN(Cc4ccccc4-c4ccc(Cl)cc4)CC3)cc2)cc1[N+](=O)[O-]` [EXAMPLE 2, N-(4-(4-((4′-chloro(1,1′-biphenyl)-2-yl)methyl)piperazin-1-yl)benzoyl)-4-(((1R)-3-(dimethylamino)-1-((phenylsulfanyl)methyl)propyl)amino)-3-nitrobenzenesulfonamide] the “activity in follicular lymphoma model” value [1] was “significant activity”, the EC50 [2] was 3.8 ± 2 µM and the “inhibition of tumor growth rate” value ([3]; PC3 derived murine model of prostate cancer) was 40-50%. The “therapeutic utility in prostate cancer model” value ([3]; mouse, in vivo) was “Therapeutic utility was also observed”, the EC50 [4] was 2.9 ± 0.1 µM and the EC50 [5] was 2.7 ± 1.8 µM. It also gave an EC50 [6] of 1 µM, an EC50 [7] of 2.4 µM and an EC50 [8] of 7.7 ± 2.3 µM. For the same molecule, the EC50 [9] was 1.7 ± 0.2 µM, the EC50 [10] was 0.69 ± 0.07 µM and the “activity in leukemia model” value ([11]; CCRF-CEM T-cell acute lymphoblastoid leukemia model) was “significant activity”. The survival ([11]; mice, intravenous inoculation of tumor cells) was “prolonged survival; also recorded: increased the average survival”, the “tumor infiltration in liver and spleen (histopathology)” value ([11]; relative to controls) was “lower tumor infiltration” and the average spleen weight ([11]; relative to vehicle controls) was “significant decrease in average spleen weight”. The EC50 [12] was 0.99 ± 0.45 µM, the EC50 [13] was 7.4 ± 0.6 µM and the EC50 [14] was 2.1 ± 1.8 µM. The “effect on efficacy of cytotoxic agents during combination therapy” value [15] was “synergistically enhanced efficacy”, the EC50 [16] was 6.3 ± 6.7 µM and the EC50 [17] was 1.7 ± 0.4 µM. The EC50 [18] was 1.7 ± 0.6 µM, the EC50 [19] was 0.51 ± 0.07 µM and the EC50 [20] was 8.3 ± 0.4 µM. The EC50 [21] was 8.2 ± 1.1 µM, the EC50 [22] was over 10 µM and the tumor regression ([23]; H146 model, in some cases tumor disappearance after prolonged therapy) was “complete regression of an established tumor”. For the same molecule, the anti-tumor activity ([23]; H146 murine model, human-derived small cell lung cancer) was “demonstrated anti-tumor activity”, the EC50 [24] was 1.4 ± 0.6 µM and the EC50 [25] was 1.9 ± 0.3 µM.

Source: patent US20050159427A1, “N-acylsulfonamide apoptosis promoters” (priority 2003, published 2005)
